Assay results as given in PubChem BioAssay AID330 (DTP/NCI, 2004).
Values joined by “and” are separate entries in the source; they are usually repeats but may differ in a detail not shown here. Equal values may be shown once. Toxic doses and inconclusive results are not listed.

System: P388 leukemia ip, CD2F1 mice, survival T/C
Experiment: NCI In Vivo Anticancer Drug Screen. Data for tumor model P388 Leukemia (intraperitoneal) in CD2F1 (CDF1) mice
Details: endpoint: median survival time, higher = longer survival
Method in brief: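 Mice carrying the transplanted tumor received test compound or vehicle. Survival was recorded in each group, and the value is the treated-group measurement divided by that of the vehicle-treated control group.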

[1] = dose: 12.5 mg/kg/injection, schedule: Q01DX009 (ip), vehicle: Klucel (hydroxypropylcellulose) (HPC)
[2] = dose: 25.0 mg/kg/injection, schedule: Q01DX009 (ip), vehicle: Klucel (hydroxypropylcellulose) (HPC)
[3] = dose: 60.0 mg/kg/injection, schedule: Q01DX005 (ip), vehicle: saline with Tween-80
[4] = dose: 120.0 mg/kg/injection, schedule: Q01DX005 (ip), vehicle: saline with Tween-80
[5] = dose: 240.0 mg/kg/injection, schedule: Q01DX005 (ip), vehicle: saline with Tween-80
[6] = dose: 100.0 mg/kg/injection, schedule: Q04DX003 (ip), vehicle: saline with Tween-80
[7] = dose: 200.0 mg/kg/injection, schedule: Q04DX003 (ip), vehicle: saline with Tween-80
[8] = dose: 400.0 mg/kg/injection, schedule: Q04DX003 (ip), vehicle: saline with Tween-80
[9] = dose: 50.0 mg/kg/injection, schedule: Q01DX005 (ip), vehicle: saline with Tween-80
[10] = dose: 100.0 mg/kg/injection, schedule: Q01DX005 (ip), vehicle: saline with Tween-80
[11] = dose: 200.0 mg/kg/injection, schedule: Q01DX005 (ip), vehicle: saline with Tween-80
[12] = dose: 200.0 mg/kg/injection, schedule: Q01DX009 (ip), vehicle: Klucel (hydroxypropylcellulose) (HPC)
[13] = dose: 100.0 mg/kg/injection, schedule: Q04DX003 (ip), vehicle: Klucel (hydroxypropylcellulose) (HPC)
[14] = dose: 200.0 mg/kg/injection, schedule: Q04DX003 (ip), vehicle: Klucel (hydroxypropylcellulose) (HPC)
[15] = dose: 50.0 mg/kg/injection, schedule: Q01DX009 (ip), vehicle: Klucel (hydroxypropylcellulose) (HPC)
[16] = dose: 100.0 mg/kg/injection, schedule: Q01DX009 (ip), vehicle: Klucel (hydroxypropylcellulose) (HPC)

With `COc1cc2c(c(OC)c1OC)-c1ccc(SCc3ccccc3)c(=O)cc1[C@@H](NC(C)=O)CC2` the T/C (dose: 1.56 mg/kg/injection, schedule: Q01DX009 (ip), vehicle: Klucel (hydroxypropylcellulose) (HPC)) was 105 % of control and 111 % of control and 122 % of control, the T/C (dose: 1.56 mg/kg/injection, schedule: Q01DX009 (ip), vehicle: saline with Tween-80) was 96 % of control and the T/C (dose: 3.12 mg/kg/injection, schedule: Q01DX009 (ip), vehicle: Klucel (hydroxypropylcellulose) (HPC)) was 105 % of control and 123 % of control. The T/C (dose: 3.12 mg/kg/injection, schedule: Q01DX009 (ip), vehicle: saline with Tween-80) was 105 % of control, the T/C (dose: 6.25 mg/kg/injection, schedule: Q01DX009 (ip), vehicle: saline with Tween-80) was 105 % of control and the T/C [1] was 169 % of control and 214 % of control. For the same molecule, the T/C [2] was 92 % of control.
In the case of `N#Cc1c2c(n3c1[nH]c(=O)c1ccccc13)CCCC2`, the T/C [3] is reported as 105 % of control, the T/C [4] is reported as 100 % of control and the T/C [5] is reported as 99 % of control.
`COc1ccc2cc3[n+](c(CC(=O)O)c2c1OC)CCc1cc2c(cc1-3)OCO2` was tested, and the T/C (dose: 0.63 mg/kg/injection, schedule: Q01DX009 (ip), vehicle: water) was 101 % of control, the T/C (dose: 1.25 mg/kg/injection, schedule: Q01DX009 (ip), vehicle: water) was 88 % of control and the T/C (dose: 2.5 mg/kg/injection, schedule: Q01DX009 (ip), vehicle: water) was 105 % of control. The T/C (dose: 5.0 mg/kg/injection, schedule: Q01DX009 (ip), vehicle: water) was 117 % of control and the T/C (dose: 10.0 mg/kg/injection, schedule: Q01DX009 (ip), vehicle: water) was 118 % of control.
In the case of `O=C(CCCCC(=O)N/N=C/c1cccc([N+](=O)[O-])c1)N/N=C/c1cccc([N+](=O)[O-])c1`, the T/C [3] is reported as 100 % of control, the T/C [4] is reported as 92 % of control and the T/C [5] is reported as 94 % of control.
In the case of `O=C(Nc1ccc(Cl)cc1)Nc1nnc(-c2ccc(-c3nnc(NC(=O)Nc4ccc(Cl)cc4)o3)cc2)o1`, the T/C [3] is reported as 104 % of control, the T/C [4] is reported as 100 % of control and the T/C [5] is reported as 98 % of control.
For `CSC(=S)C(CNc1ncccn1)c1ccccc1` (configuration not stated), the T/C (dose: 60.0 mg/kg/injection, schedule: Q01DX005 (ip), vehicle: Klucel + Tween-80) was 89 % of control and the T/C (dose: 120.0 mg/kg/injection, schedule: Q01DX005 (ip), vehicle: Klucel + Tween-80) was 89 % of control.
With `NC(C(=O)O)C(O)c1ccc2c(c1)OCO2` (configuration not stated) the T/C [6] was 100 % of control, the T/C [7] was 100 % of control and the T/C [8] was 100 % of control.
In the case of `CN(NC=O)C(=N)N`, the T/C (dose: 50.0 mg/kg/injection, schedule: Q01DX001 (ip), vehicle: saline) is reported as 109 % of control, the T/C (dose: 100.0 mg/kg/injection, schedule: Q01DX001 (ip), vehicle: saline) is reported as 100 % of control and the T/C (dose: 200.0 mg/kg/injection, schedule: Q01DX001 (ip), vehicle: saline) is reported as 102 % of control.
With `O=C1c2ccc(=O)[nH]c2C(=O)C2CC3=C(CCCC3)CC12` (configuration not stated) the T/C [9] was 109 % of control, the T/C [10] was 97 % of control and the T/C [11] was 94 % of control.
`Cn1c2c(c(=O)c3c4c(=O)c5c([nH]c4ccc31)CCCC5)CCCC2` was tested, and the T/C [6] was 100 % of control, the T/C [7] was 94 % of control and the T/C [8] was 86 % of control.
For `O=C(O)C1Cc2c([nH]c3ccccc23)CN1` (configuration not stated), the T/C (dose: 12.5 mg/kg/injection, schedule: Q01DX009 (ip), vehicle: suspension in saline) was 100 % of control, the T/C (dose: 25.0 mg/kg/injection, schedule: Q01DX009 (ip), vehicle: suspension in saline) was 109 % of control and the T/C (dose: 50.0 mg/kg/injection, schedule: Q01DX009 (ip), vehicle: suspension in saline) was 105 % of control. For the same molecule, the T/C (dose: 100.0 mg/kg/injection, schedule: Q01DX009 (ip), vehicle: suspension in saline) was 106 % of control.
With `COc1cc2cc(c1Cl)N1CCC(C)(O)C(=O)NC(C)C(=O)OC(CC1=O)C1(C)OC1C(C)C1CC(O)(NC(=O)O1)C(OC)/C=C\C=C(\C)C2OC` (configuration not stated) the T/C (dose: 4.0 micrograms/kg/injection, schedule: Q01DX009 (ip), vehicle: distilled water + alcohol) was 150 % of control, the T/C (dose: 16.0 micrograms/kg/injection, schedule: Q01DX009 (ip), vehicle: distilled water + alcohol) was 157 % of control and the T/C (dose: 32.0 micrograms/kg/injection, schedule: Q01DX009 (ip), vehicle: distilled water + alcohol) was 150 % of control.
In the case of `Cc1cc(=O)n2[nH]cnc2n1`, the T/C [1] is reported as 97 % of control, the T/C [2] is reported as 109 % of control and 110 % of control and 98 % of control and the T/C [12] is reported as 99 % of control and 107 % of control and 109 % of control. The T/C (dose: 400.0 mg/kg/injection, schedule: Q01DX009 (ip), vehicle: Klucel (hydroxypropylcellulose) (HPC)) was 104 % of control and 119 % of control.
In the case of `O=C(/C=C\c1cccc2ccccc12)c1ccccn1`, the T/C (dose: 100.0 mg/kg/injection, schedule: Q01DX001 (ip), vehicle: saline with Tween-80) is reported as 106 % of control, the T/C (dose: 200.0 mg/kg/injection, schedule: Q01DX001 (ip), vehicle: saline with Tween-80) is reported as 112 % of control and the T/C (dose: 400.0 mg/kg/injection, schedule: Q01DX001 (ip), vehicle: saline with Tween-80) is reported as 112 % of control.
With `Oc1ccccc1-c1nc(-c2ccccc2)c(-c2ccccc2)[nH]1` the T/C [13] was 106 % of control, the T/C [14] was 101 % of control and the T/C (dose: 400.0 mg/kg/injection, schedule: Q04DX003 (ip), vehicle: Klucel (hydroxypropylcellulose) (HPC)) was 101 % of control.
For `C[N+]1(Cc2ccccc2)C2CCC(O)C1CC2` (configuration not stated), the T/C (dose: 15.0 mg/kg/injection, schedule: Q01DX005 (ip), vehicle: saline) was 103 % of control, the T/C (dose: 30.0 mg/kg/injection, schedule: Q01DX005 (ip), vehicle: saline) was 100 % of control and the T/C (dose: 60.0 mg/kg/injection, schedule: Q01DX005 (ip), vehicle: saline) was 102 % of control.
`CC(C)c1ccc(C(CC(=O)c2ccccc2)C(C(=O)O)c2ccc([N+](=O)[O-])cc2)cc1` (configuration not stated) was tested, and the T/C [15] was 105 % of control, the T/C [16] was 103 % of control and the T/C [12] was 104 % of control.
With `CC(=O)Nc1ccc(S(=O)(=O)N/N=C/c2cc([N+](=O)[O-])cc(I)c2O)cc1` the T/C [3] was 93 % of control, the T/C [4] was 97 % of control and the T/C [5] was 103 % of control.
For `C(=N[C@H]1CCCC[C@H]1N=Cc1ccccn1)c1ccccn1`, the T/C [9] was 95 % of control, the T/C [10] was 90 % of control and the T/C [11] was 101 % of control.
`CCCCCCCCCCCCCOCC(=O)O` was tested, and the T/C [15] was 100 % of control, the T/C [16] was 95 % of control and the T/C [12] was 102 % of control.
In the case of `CNC(=O)c1ccccc1Sc1ccccc1C(=O)NC`, the T/C (dose: 100.0 mg/kg/injection, schedule: Q01DX001 (ip), vehicle: other) is reported as 100 % of control, the T/C (dose: 200.0 mg/kg/injection, schedule: Q01DX001 (ip), vehicle: other) is reported as 101 % of control and the T/C (dose: 400.0 mg/kg/injection, schedule: Q01DX001 (ip), vehicle: other) is reported as 100 % of control.
With `CC(O)CC(c1ccccc1)C(C(=O)O)c1ccccc1` (configuration not stated) the T/C (dose: 50.0 mg/kg/injection, schedule: Q01DX009 (ip), vehicle: saline) was 108 % of control, the T/C (dose: 100.0 mg/kg/injection, schedule: Q01DX009 (ip), vehicle: saline) was 101 % of control and the T/C (dose: 200.0 mg/kg/injection, schedule: Q01DX009 (ip), vehicle: saline) was 95 % of control.
In the case of `Nc1cc2c3ccccc3ccc2c2ccccc12`, the T/C (dose: 25.0 mg/kg/injection, schedule: Q01DX005 (ip), vehicle: Klucel (hydroxypropylcellulose) (HPC)) is reported as 104 % of control, the T/C (dose: 50.0 mg/kg/injection, schedule: Q01DX005 (ip), vehicle: Klucel (hydroxypropylcellulose) (HPC)) is reported as 107 % of control and the T/C (dose: 100.0 mg/kg/injection, schedule: Q01DX005 (ip), vehicle: Klucel (hydroxypropylcellulose) (HPC)) is reported as 109 % of control. For the same molecule, the T/C (dose: 200.0 mg/kg/injection, schedule: Q01DX005 (ip), vehicle: Klucel (hydroxypropylcellulose) (HPC)) was 105 % of control.
`O=P(c1ccccc1)(c1ccccc1)c1ccccc1.O=P(c1ccccc1)(c1ccccc1)c1ccccc1.O=S(=O)(O)O.[Fe]` was tested, and the T/C [13] was 93 % of control and the T/C [14] was 89 % of control.
For `CC12Cc3cnoc3C=C1CCC1C2CCC2(C)C1CCC2(C)O` (configuration not stated), the T/C [9] was 93 % of control and the T/C [10] was 86 % of control.
For `CC(C)CCNc1ncnc2[nH]ncc12`, the T/C (dose: 25.0 mg/kg/injection, schedule: Q04DX003 (ip), vehicle: saline with Tween-80) was 95 % of control, the T/C (dose: 50.0 mg/kg/injection, schedule: Q04DX003 (ip), vehicle: saline with Tween-80) was 95 % of control and the T/C [6] was 100 % of control.
In the case of `CC(C)(C(=O)O)c1ccc(C(=O)O)c(Br)c1`, the T/C (dose: 50.0 mg/kg/injection, schedule: Q01DX009 (ip), vehicle: saline with Tween-80) is reported as 91 % of control, the T/C (dose: 100.0 mg/kg/injection, schedule: Q01DX009 (ip), vehicle: saline with Tween-80) is reported as 93 % of control and the T/C (dose: 200.0 mg/kg/injection, schedule: Q01DX009 (ip), vehicle: saline with Tween-80) is reported as 101 % of control.
